The NIST ThermoML archive (doi:10.1016/j.jct.2015.08.014)

Assay: xn = mol fraction of the nth substance listed
Conditions: 298.15 K, 100 kPa, Liquid; for viscosity: Capillary tube (Ostwald / Ubbelohde) method; for electrical conductivity: Alternating current cell with electrodes

CCCC[N+]1(C)CCCC1.N#CN=C=[N-] [1-butyl-1-methylpyrrolidinium dicyanamide] + O=C1CCCO1
Conditions | viscosity [mPa·s]
x1 = 0.4985 | 11.38
x1 = 0.6954 | 18.62
x1 = 0.9013 | 28.31
x1 = 1 | 33.71

electrical conductivity [S/m]
Conditions | Frequency=0.0005 MHz | Frequency=0.001 MHz | Frequency=0.0015 MHz | Frequency=0.002 MHz | Frequency=0.0025 MHz | Frequency=0.003 MHz | Frequency=0.00347222 MHz | Frequency=0.004 MHz | Frequency=0.00446429 MHz | Frequency=0.005 MHz
x1 = 0.0463 | 1.46 | 1.47 | 1.47 | 1.47 | 1.47 | 1.47 | 1.47 | 1.47 | 1.47 | 1.47
x1 = 0.0987 | 2.2 | 2.2 | 2.21 | 2.21 | 2.21 | 2.21 | 2.21 | 2.21 | 2.21 | 2.21
x1 = 0.1449 | 2.51 | 2.51 | 2.51 | 2.51 | 2.51 | 2.51 | 2.51 | 2.51 | 2.51 | 2.51
x1 = 0.1859 | 2.65 | 2.65 | 2.66 | 2.66 | 2.67 | 2.67 | 2.67 | 2.67 | 2.67 | 2.67
x1 = 0.2493 | 2.606 | 2.608 | 2.61 | 2.61 | 2.611 | 2.611 | 2.612 | 2.612 | 2.612 | 2.612
x1 = 0.3029 | 2.526 | 2.53 | 2.53 | 2.54 | 2.54 | 2.54 | 2.54 | 2.54 | 2.54 | –
x1 = 0.3845 | 2.35 | 2.36 | 2.36 | 2.36 | 2.36 | 2.36 | 2.36 | 2.36 | 2.36 | –
x1 = 0.4985 | 2.08 | 2.08 | 2.08 | 2.08 | 2.08 | 2.08 | 2.08 | 2.08 | 2.08 | –
x1 = 0.6954 | 1.67 | 1.68 | 1.68 | 1.68 | 1.68 | 1.68 | 1.68 | 1.68 | 1.68 | –
x1 = 0.9013 | 1.39 | 1.39 | 1.39 | 1.39 | 1.39 | 1.39 | 1.39 | 1.39 | 1.39 | –
x1 = 1 | 1.315 | 1.316 | 1.316 | 1.316 | 1.317 | 1.317 | 1.317 | 1.317 | 1.317 | –
